Experiments:
[1] = Cytotoxicity of flavonoid dimers, L929 mouse fibroblast; type: cell-based; conditions: mouse, IC50 of compound alone, 72 hrs, mouse fibroblast
Protocol: (§1) (b) Tumor Cell Line Cytotoxicity. The tumor cytotoxicity assays of flavonoid dimers were performed against LCC6, LCC6MDR and L929 cell lines. […] In brief, LCC6, LCC6MDR and L929 cells were seeded into 96-well flat bottom microtiter plate at 1×10^4 cells per well in a final volume of 100 μL media, respectively. A graded dose of flavonoid dimers was added into wells. The plate was incubated at 37° C. for 72 hrs at the atmosphere 5% CO2 in the air. The % of survivors was determined.

[2] = Tumor cell line cytotoxicity of flavonoid dimers, LCC6; type: cell-based, human; conditions: human, IC50 of compound alone
Protocol: as §1

[3] = Tumor cell line cytotoxicity of flavonoid dimers, LCC6MDR; type: cell-based, human; conditions: human, IC50 of compound alone
Protocol: as §1

[4] = molecular target: Pgp (LCC6MDR cells) (Homo sapiens, UniProt P08183); assay: Cell proliferation assay: Pgp-modulating activity, reversal of anticancer drug resistance in LCC6MDR cells; conditions: for EC50: EC50 of compounds for reversing anticancer drug resistance (nM), Paclitaxel; for EC50 / RF (Relative Fold), cpd at 0.5 μM / RF (Relative Fold), cpd at 1 μM: LCC6MDR; for Therapeutic index: IC50 of compounds for L929/EC50 of compounds for lowering paclitaxel drug resistance; for RF (Relative Fold), cpd at 0.5 μM: RF = (IC50 without modulator)/(IC50 with 0.5 μM modulator); for RF (Relative Fold), cpd at 0.5 μM / RF (Relative Fold), cpd at 1 μM: paclitaxel; for RF (Relative Fold), cpd at 1 μM: RF = (IC50 without modulator)/(IC50 with 1.0 μM modulator)
Chain of Pgp (LCC6MDR cells) (P08183 whole entry): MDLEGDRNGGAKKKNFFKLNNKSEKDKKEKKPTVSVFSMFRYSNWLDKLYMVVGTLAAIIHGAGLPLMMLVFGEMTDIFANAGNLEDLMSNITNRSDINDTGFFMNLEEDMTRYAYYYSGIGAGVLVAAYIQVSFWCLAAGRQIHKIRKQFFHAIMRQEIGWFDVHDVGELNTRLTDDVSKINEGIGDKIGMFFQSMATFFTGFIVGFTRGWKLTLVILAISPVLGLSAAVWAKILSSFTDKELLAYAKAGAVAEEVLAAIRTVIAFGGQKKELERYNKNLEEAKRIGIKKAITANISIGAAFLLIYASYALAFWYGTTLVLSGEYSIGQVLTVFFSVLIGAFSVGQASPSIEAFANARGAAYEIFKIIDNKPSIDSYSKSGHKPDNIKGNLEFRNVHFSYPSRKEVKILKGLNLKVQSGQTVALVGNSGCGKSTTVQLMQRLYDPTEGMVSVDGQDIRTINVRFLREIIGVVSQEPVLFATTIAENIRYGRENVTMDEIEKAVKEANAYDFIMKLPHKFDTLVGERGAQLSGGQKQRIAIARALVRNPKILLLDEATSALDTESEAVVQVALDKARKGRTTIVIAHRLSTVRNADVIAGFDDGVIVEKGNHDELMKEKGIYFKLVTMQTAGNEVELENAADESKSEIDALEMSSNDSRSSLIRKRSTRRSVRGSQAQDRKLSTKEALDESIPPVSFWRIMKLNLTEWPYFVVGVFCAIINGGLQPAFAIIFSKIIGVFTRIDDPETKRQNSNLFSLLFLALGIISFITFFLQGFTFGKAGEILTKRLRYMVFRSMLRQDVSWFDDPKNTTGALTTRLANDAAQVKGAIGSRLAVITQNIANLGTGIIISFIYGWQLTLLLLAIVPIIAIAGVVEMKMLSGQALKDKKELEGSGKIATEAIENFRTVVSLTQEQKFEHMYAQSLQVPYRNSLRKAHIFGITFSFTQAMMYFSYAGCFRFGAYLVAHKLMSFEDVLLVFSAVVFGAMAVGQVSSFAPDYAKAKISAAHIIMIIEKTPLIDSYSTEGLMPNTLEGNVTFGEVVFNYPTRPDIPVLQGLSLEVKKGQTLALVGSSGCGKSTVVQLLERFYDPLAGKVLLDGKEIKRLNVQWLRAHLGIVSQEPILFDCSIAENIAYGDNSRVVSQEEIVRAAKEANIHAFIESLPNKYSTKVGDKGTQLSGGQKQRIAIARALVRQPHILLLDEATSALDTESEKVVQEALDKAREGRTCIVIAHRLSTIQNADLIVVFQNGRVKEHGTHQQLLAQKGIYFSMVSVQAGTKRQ
Protocol: Cell Proliferation Assay. 6,000 cells of LCC6 or LCC6MDR and anticancer drugs (paclitaxel, vinblastine, vincristine, doxorubicin and mitoxantrone) were mixed with or without modulators to a final volume of 200 μL in each well of 96-well plates. […] The plates were then incubated for 5 days at 37° C. […] IC50 values were calculated from the dose-response curves of MTS assays (Prism 4.0).

Structure (SMILES) | IC50 at 72 h ([1]; L929 fibroblast cells) [µM] | IC50 at 72 h ([2]; LCC6 cells) [µM] | IC50 at 72 h ([3]; LCC6MDR cells) [µM] | EC50 [4] [nM] | Therapeutic index [4] | RF (Relative Fold), cpd at 0.5 μM [4] | RF (Relative Fold), cpd at 1 μM [4] | IC50 at 72 h [1] [µM] | IC50 at 72 h [2] [µM] | IC50 at 72 h [3] [µM]
O=c1cc(-c2ccc(OCCOCCN(CCOCCOc3ccc(-c4cc(=O)c5ccccc5o4)cc3)CC3CCCCC3)cc2)oc2ccccc12 [Compound 62, 1,13-Bis[4′-(4H-chromen-4-on-2-yl)phenyl]-7-(cyclohexanylmethyl)-1,4,10,13-tetraoxa-7-azamidecane] | 18.9 ± 2.3 | 10 ± 4.7 | 7.9 ± 2.7 | 132 ± 7 | 143.2 | (56.7) | (117.8) |  |  | 
O=c1cc(-c2ccc(OCCOCCN(CCOCCOc3ccc(-c4cc(=O)c5ccccc5o4)cc3)Cc3cccc(-c4ccccc4)c3)cc2)oc2ccccc12 [Compound 56, 1,13-Bis[4′-(4H-chromen-4-on-2-yl)phenyl]-7-(3-phenylbenzyl)-1,4,10,13-tetraoxa-7-azamidecane] | > 100 | > 100 | > 100 |  |  | (2.7) | (38.5) |  |  | 
N#Cc1cc(CN(CCOCCOc2ccc(-c3cc(=O)c4ccccc4o3)cc2)CCOCCOc2ccc(-c3cc(=O)c4ccccc4o3)cc2)ccn1 [Compound 64c, 1,13-Bis[4′-(4H-chromen-4-on-2-yl)phenyl]-7-(4-(2-cyanopyridyl)methyl)-1,4,10,13-tetraoxa-7-azamidecane] | > 50 | > 100 | > 100 |  |  | (19.4) | (66.6) |  |  | 
O=c1c(OCc2ccccc2)c(-c2ccc(OCCOCCNCCOCCOc3ccc(-c4oc5ccccc5c(=O)c4OCc4ccccc4)cc3)cc2)oc2ccccc12 [Compound 12e, 1,13-Bis[4′-((3-benzyloxy)-4H-chromen-4-on-2-yl)phenyl]-1,4,10,13-tetraoxa-7-azamidecane] | 4.2 | 4.3 ± 0.5 | 4.4 ± 0.1 |  |  | (54.7) |  |  |  | 
Cc1cccc(CN(CCOCCOc2ccc(-c3cc(=O)c4ccccc4o3)cc2)CCOCCOc2ccc(-c3cc(=O)c4ccccc4o3)cc2)c1 [Compound 45, 1,13-Bis[4′-(4H-chromen-4-on-2-yl)phenyl]-7-(3-methylbenzyl)-1,4,10,13-tetraoxa-7-azamidecane] | 55 ± 4.4 | 57.7 ± 5.9 | > 66 |  |  | (32.6) | (102.1) |  |  | 
CC(C)(C)CC(=O)N(CCOCCOc1ccc(-c2cc(=O)c3ccccc3o2)cc1)CCOCCOc1ccc(-c2cc(=O)c3ccccc3o2)cc1 [Compound 33, 1,13-Bis[4′-(4H-chromen-4-on-2-yl)phenyl]-7-(tert-butylacetyl)-1,4,10,13-tetraoxa-7-azamidecane] | > 100 | > 100 | > 100 |  |  | (18.9) |  |  |  | 
O=c1cc(-c2ccc(OCCOCCN(CCOCCOc3ccc(-c4cc(=O)c5ccccc5o4)cc3)Cc3ccnc4ccccc34)cc2)oc2ccccc12 [Compound 64f, 1,13-Bis[4′-(4H-chromen-4-on-2-yl)phenyl]-7-(4-quinolinylmethyl)-1,4,10,13-tetraoxa-7-azamidecane] | > 100 | > 100 | > 100 |  |  | (15.9) | (69.6) |  |  | 
O=c1cc(-c2ccc(OCCOCCN(CCOCCOc3ccc(-c4cc(=O)c5ccccc5o4)cc3)Cc3cccnc3)cc2)oc2ccccc12 [Compound 64a, 1,13-Bis[4′-(4H-chromen-4-on-2-yl)phenyl]-7-(3-pyridylmethyl)-1,4,10,13-tetraoxa-7-azamidecane] | 2.3 ± 0.2 | 5.7 ± 1.4 | 4.7 ± 0.2 |  |  | (8.5) | (46.4) |  |  | 
Cc1ccc2oc(-c3ccc(OCCOCCNCCOCCOc4ccc(-c5cc(=O)c6cc(C)ccc6o5)cc4)cc3)cc(=O)c2c1 [Compound 12c, 1,13-Bis[4′-((6-methyl)-4H-chromen-4-on-2-yl)phenyl]-1,4,10,13-tetraoxa-7-azamidecane] | 6 ± 0.6 | 7.5 ± 0.9 | 7 ± 1.4 |  |  | (13.9) |  |  |  | 
O=c1cc(-c2ccc(OCCOCCN(CCOCCOc3ccc(-c4cc(=O)c5ccccc5o4)cc3)Cc3cc4c(cc3Cl)OCO4)cc2)oc2ccccc12 [Compound 42f, 1,13-Bis[4′-(4H-chromen-4-on-2-yl)phenyl]-7-[5-(6-chloropiperonyl)]-1,4,10,13-tetraoxa-7-azamidecane] | > 100 | > 100 | > 100 |  |  | (4.8) | (80.6) |  |  | 
COc1cccc2oc(-c3ccc(OCCOCCNCCOCCOc4ccc(-c5cc(=O)c6c(OC)cccc6o5)cc4)cc3)cc(=O)c12 [Compound 12d, 1,13-Bis[4′-((5-methoxy)-4H-chromen-4-on-2-yl)phenyl]-1,4,10,13-tetraoxa-7-azamidecane] |  | 8.8 ± 2.7 | 10.2 ± 3.8 |  |  | (1.2) |  |  |  | 
O=C(c1ccccc1)N(CCOCCOc1ccc(-c2cc(=O)c3ccccc3o2)cc1)CCOCCOc1ccc(-c2cc(=O)c3ccccc3o2)cc1 [Compound 23d, 1,13-Bis[4′-(4H-chromen-4-on-2-yl)phenyl]-7-(benzoyl)-1,4,10,13-tetraoxa-7-azamidecane] | 95 | > 100 | > 100 |  |  | (7.5) |  |  |  | 
O=c1cc(-c2ccc(OCCOCCN(CCOCCOc3ccc(-c4cc(=O)c5ccccc5o4)cc3)Cc3ccc(O)cc3)cc2)oc2ccccc12 [Compound 42d, 1,13-Bis[4′-(4H-chromen-4-on-2-yl)phenyl]-7-(4-hydroxybenzyl)-1,4,10,13-tetraoxa-7-azamidecane] | 4.8 ± 0.3 | 5.4 ± 0.6 | 5.3 ± 0.7 | 141 ± 9 | 34.0 | (117.8) | (117.8) |  |  | 
O=c1cc(-c2ccc(OCCOCCN(CCOCCOc3ccc(-c4cc(=O)c5ccccc5o4)cc3)Cc3ccc4ccccc4c3)cc2)oc2ccccc12 [Compound 58, 1,13-Bis[4′-(4H-chromen-4-on-2-yl)phenyl]-7-(2-naphthalenylmethyl)-1,4,10,13-tetraoxa-7-azamidecane] | 5.1 ± 0.3 | 4.8 ± 0.4 | 8.9 ± 3.3 | 92 ± 11 | 55.4 | (95.7) | (117.8) |  |  | 
O=c1cc(-c2ccc(OCCOCCN(CCOCCOc3ccc(-c4cc(=O)c5ccccc5o4)cc3)Cc3c(F)cccc3F)cc2)oc2ccccc12 [Compound 41, 1,13-Bis[4′-(4H-chromen-4-on-2-yl)phenyl]-7-(2,6-difluorobenzyl)-1,4,10,13-tetraoxa-7-azamidecane] | > 100 | > 100 | > 100 | 237 ± 91 | >421.9 | (34.0) | (90.1) |  |  | 
O=c1cc(-c2ccc(OCCOCCN(CCOCCOc3ccc(-c4cc(=O)c5ccccc5o4)cc3)Cc3ccncc3Br)cc2)oc2ccccc12 [Compound 64d, 1,13-Bis[4′-(4H-chromen-4-on-2-yl)phenyl]-7-(4-(3-bromopyridyl)methyl)-1,4,10,13-tetraoxa-7-azamidecane] | > 50 | > 100 | > 100 |  |  | (10.6) | (61.2) |  |  | 
Cc1ccc(CN(CCOCCOc2ccc(-c3cc(=O)c4ccccc4o3)cc2)CCOCCOc2ccc(-c3cc(=O)c4ccccc4o3)cc2)cc1 [Compound 47, 1,13-Bis[4′-(4H-chromen-4-on-2-yl)phenyl]-7-(4-methylbenzyl)-1,4,10,13-tetraoxa-7-azamidecane] | 66.4 ± 16.8 | > 100 | > 81 |  |  | (31.2) | (109.4) |  |  | 
C/C=C/C[C@@H](C)C(=O)[C@H]1C(=O)N[C@@H](C(C)C)C(=O)N(C)CC(=O)N(C)[C@@H](CC(C)C)C(=O)N[C@@H](C(C)C)C(=O)N(C)[C@@H](CC(C)C)C(=O)N[C@@H](C)C(=O)N[C@H](C)C(=O)N(C)[C@@H](CC(C)C)C(=O)N(C)[C@@H](CC(C)C)C(=O)N(C)[C@@H](C(C)C)C(=O)N1C [PSC833, reference compound] |  |  |  |  |  |  |  | > 100 | 25.3 ± 4.3 | 14.6 ± 2.2
COc1cc(-c2cc(=O)c3ccccc3o2)ccc1OCCOCCNCCOCCOc1ccc(-c2cc(=O)c3ccccc3o2)cc1OC [Compound 12b, 1,13-Bis[4′-((4H-chromen-4-on-2-yl)-3′-methoxyphenyl)]-1,4,10,13-tetraoxa-7-azamidecane] |  | 12.8 ± 1.1 | 23.8 ± 12.8 |  |  | (0.8) |  |  |  | 
C[C@H](N)C(=O)N(CCOCCOc1ccc(-c2cc(=O)c3ccccc3o2)cc1)CCOCCOc1ccc(-c2cc(=O)c3ccccc3o2)cc1 [Compound 23b, 1,13-Bis[4′-(4H-chromen-4-on-2-yl)phenyl]-7-[(S)-2-amino-1-oxopropyl]-1,4,10,13-tetraoxa-7-azamidecane] |  | 4.4 | 4.6 ± 0.2 |  |  | (1.0) |  |  |  | 
